Laboratory results published in US20110112308A1 (NOVARTIS AG, priority 2006, published 2011).

Legend:
[1] = Equilibration in solvents and buffers: form conversion; details: water / aqueous solutions
[2] = Solid-state stability; format: physicochemical; details: for Bulk stability (XRPD): 1 week
Protocol: (§1) All samples were prepared/diluted to a concentration of 0.2 mg/mL in methanol prior to analysis by HPLC. A freshly prepared sample of each salt was used as the reference standard for external standard calibration analysis.

[3] = Intrinsic dissolution rate, rotation disk method; format: physicochemical; details: for Intrinsic Dissolution Rate: 37° C., 200 r.p.m.
Procedure, shortened: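 Pellets of drug substance dissolved by rotating disk at 200 r.p.m. into a 500 mL vessel at 37 °C. Dissolved drug monitored continuously by recirculating the medium through a UV cell.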

[4] = Stability of mixtures with excipients; format: physicochemical
Protocol: as §1

[5] = Solubility, 24-hour equilibration at room temperature; format: physicochemical; details: for Solubility: approx. at 25° C.
Procedure, shortened: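 20-50 mg sample in 1 ml solvent, equilibrated 24 h at room temperature. Dissolved amount measured gravimetrically or by UV-VIS, and pH of the clear solution recorded; salts may dissociate to free form, affecting solubility and pH.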

[6] = pH of saturated solution or 1% suspension in water; format: physicochemical; details: room temperature
Protocol: pH Value: The pH at room temperature of a saturated solution or 1% suspension of the drug substance in water was recorded.

[7] = pH of saturated solution or 1% suspension in water; format: physicochemical; details: In pH = 6.8 buffer
[8] = Solution stability (HPLC); format: physicochemical
Protocol: as §1

[9] = Bulk stability, 2 weeks, 50° C.
[10] = Bulk stability, 2 weeks, 50° C./20% water
[11] = Bulk stability, 2 weeks, 50° C./75% r.h.
[12] = Light study, 1200 kLux (300-800 nm)
[13] = Mixture 1: 50% PVP + 50% Crospovidone, 50° C./75% r.h., 2 weeks
[14] = Mixture 2: 50% Starch 1500 + 5% MCC 102, 50° C./75% r.h., 2 weeks
[15] = Mixture 3: 5% PVP + 5% Crospovidone + 10% Starch 1500 + 80% MCC 102, 50° C./75% r.h., 2 weeks
[16] = Mixture 4: 99% Lactose + 1% BHT/BHA, 50° C./75% r.h., 2 weeks
[17] = Mixture 5: 99% Mannitol + 1% BHT/BHA, 50° C./75% r.h., 2 weeks
[18] = Mixture 6: 50% Mannitol + 47% HPCLH21 + 1% BHT/BHA + 2% Magnesium Stearate, 50° C./75% r.h., 2 weeks
[19] = Mixture 7: 50% Cetyl Alcohol + 49% HPCLH21 + 1% Magnesium Stearate, 50° C./75% r.h., 2 weeks
[20] = 2 mg/mL in methanol, 1 week at 50° C.
[21] = 2 mg/mL in water, 1 week at 50° C.
[22] = 2% in 0.5% HPMC 4000, 1 day at RT
[23] = 2% in 0.5% Klucel HF, 1 day at RT
[24] = 2% in 0.8% Tween 80, 1 day at RT
[25] = 5% solution, 1 day at RT (diluted 1:100 in pH 6.8 buffer)

conversion upon equilibration [1]: polymorphic transformation
Bulk stability (XRPD) ([2]; 80° C.): No change
Bulk stability (XRPD) ([2]; 80° C./75% r.h.): No change
% DP (total degradation products) [2, 9]: 0.80 % area
assay [2, 9]: [99.35]
% DP (total degradation products) [2, 10]: 1.48 % area
assay [2, 10]: [97.36]
% DP (total degradation products) [2, 11]: 1.20 % area
assay [2, 11]: [100.0]
% DP (total degradation products) [2, 12]: 1.16 % area
CL (appearance) [2, 12]: B (B = slight discoloration)
assay [2, 12]: [98.28]
intrinsic dissolution (rate), in words [3]: high
Intrinsic Dissolution Rate ([3]; HCl 0.1N): 6.51 mg min^−1 cm^−2
Intrinsic Dissolution Rate ([3]; Water, free base pellet disintegrated, not true intrinsic rate): 10.17 mg min^−1 cm^−2
% DP (total degradation products) [4, 13]: 0.8 % area
% DS (drug substance) [4, 13]: 99.2 % area
% DP (total degradation products) [4, 14]: 0.7 % area
% DS (drug substance) [4, 14]: 99.3 % area
% DP (total degradation products) [4, 15]: 0.7 % area
% DS (drug substance) [4, 15]: 99.3 % area
% DP (total degradation products) [4, 16]: 0.8 % area
% DS (drug substance) [4, 16]: 99.2 % area
% DP (total degradation products) [4, 17]: 0.8 % area
% DS (drug substance) [4, 17]: 99.2 % area
% DP (total degradation products) [4, 18]: 0.7 % area
% DS (drug substance) [4, 18]: 99.3 % area
% DP (total degradation products) [4, 19]: 0.6 % area
% DS (drug substance) [4, 19]: 99.4 % area
% DP (total degradation products) ([4]; Standard, freshly prepared): 0.5 % area
% DS (drug substance) ([4]; Standard, freshly prepared): 99.5 % area
stability with all excipient mixtures tested, in words ([4]; after 2 weeks at 50° C./75% r.h.): very good stability
aqueous solubility [5]: 12900 µg/mL
solubility in methanol and ethanol, in words [5]: high
solubility in other common / remaining organic solvents, in words [5]: appreciable
Solubility ([5]; 0.1N HCl): 600 µg/mL
Solubility ([5]; 2-Propanol): 2200 µg/mL
Solubility ([5]; Acetone): 3000 µg/mL
Solubility ([5]; Ethanol): 14600 µg/mL
Solubility ([5]; Ethyl acetate): 6400 µg/mL
Solubility ([5]; Methanol): >115000 µg/mL
Solubility ([5]; Propylene glycol): 46500 µg/mL
Solubility ([5]; Water): 12900 µg/mL
behaviour of clear aqueous solutions on storage ([5]; concentration below the reported solubility, precipitate found to be the free base): solid precipitation occurred
approximate solubility in water as % ([5]; estimated from mg/mL assuming solution density 1 g/mL): 1.3%
Solubility ([5]; pH = 6.8 buffer): 4100 µg/mL
pH of saturated solution [6]: 4.34
pH of saturated solution [7]: 5.38
pH of initial mixture ([8]; 2 mg/mL in 100 mM lactate buffer, pH 3.5): 3.48
% DP (total degradation products) [8, 20]: 0.62 % area
assay [8, 20]: [101.2]
pH of initial mixture ([8]; 2 mg/mL in water): 6.55
% DP (total degradation products) [8, 21]: 1.16 % area
assay [8, 21]: [99.30]
% DP (total degradation products) ([8]; 2 mg/mL, 100 mM lactate buffer pH 3.5, 1 week at 50° C.): 1.60 % area
assay ([8]; 2 mg/mL, 100 mM lactate buffer pH 3.5, 1 week at 50° C., external standard): [99.25]
% DP (total degradation products) ([8]; 2% in 0.5% CMC, 1 day at RT): 0.74 % area
CL (appearance) ([8]; 2% in 0.5% CMC, 1 day at RT): A↓↓
assay ([8]; 2% in 0.5% CMC, 1 day at RT): [79.72]
% DP (total degradation products) [8, 22]: 0.66 % area
assay [8, 22]: [97.30]
% DP (total degradation products) [8, 23]: 0.66 % area
assay [8, 23]: [97.63]
% DP (total degradation products) [8, 24]: 0.63 % area
assay [8, 24]: [98.05]
% DP (total degradation products) [8, 25]: 0.78 % area
assay [8, 25]: [99.30]
stability characteristics, in words ([8]; both in solution and in the solid state): very good stability
Unstressed (% Area) ([8]; unstressed baseline of the stability study): 99.30% Area
SMILES: CS(=O)(=O)O.Cc1[nH]c2ccccc2c1CCNCc1ccc(/C=C/C(=O)NO)cc1 [Mesylate, 1:1 mesylate salt of N-hydroxy-3-[4-[[[2-(2-methyl-1H-indol-3-yl)ethyl]amino]methyl]phenyl]-2E-2-propenamide]
